Assay results taken from PMC5431342, “Discovery of an enzyme and substrate selective inhibitor of ADAM10 using an exosite-binding glycosylated substrate” (Scientific Reports, 2016).
Read-outs that look alike come from different tables or passages of the source.

Legend:
[1] = system: IL-8-induced migration of primary human neutrophils; experiment: Neutrophil migration assay; type: cell-based
Method: (§1) For PBMC or primary human neutrophil chemotaxis assays, transwells with 8 or 5 µm pores were filled with 100 µL of cell suspension (1 × 10^6 cells in 100 µL DMEM + 0.2% BSA). Lower wells were filled with stimulus solution (3 nM CCL2 or 10 µg/mL CXCL8 (IL8) in assay buffer (RPMI + 0.2% BSA). After incubation of PBMCs for 2 h or neutrophils for 45 min, migrated cells were quantified in the lower well. For inhibitor studies, cells were pre-incubated in migration medium for 30 min and subsequently subjected to the migration experiment. Migrated neutrophils or PBMCs were quantified by measurement of endogenous glucuronidase activity as described.

ADAM10 [2] = molecular target: T1, ADAM10 (Homo sapiens, UniProt O14672); conditions: cited from earlier work
T1 construct: purchased R&D Systems 936-AD
T1 sequence (O14672 214-748): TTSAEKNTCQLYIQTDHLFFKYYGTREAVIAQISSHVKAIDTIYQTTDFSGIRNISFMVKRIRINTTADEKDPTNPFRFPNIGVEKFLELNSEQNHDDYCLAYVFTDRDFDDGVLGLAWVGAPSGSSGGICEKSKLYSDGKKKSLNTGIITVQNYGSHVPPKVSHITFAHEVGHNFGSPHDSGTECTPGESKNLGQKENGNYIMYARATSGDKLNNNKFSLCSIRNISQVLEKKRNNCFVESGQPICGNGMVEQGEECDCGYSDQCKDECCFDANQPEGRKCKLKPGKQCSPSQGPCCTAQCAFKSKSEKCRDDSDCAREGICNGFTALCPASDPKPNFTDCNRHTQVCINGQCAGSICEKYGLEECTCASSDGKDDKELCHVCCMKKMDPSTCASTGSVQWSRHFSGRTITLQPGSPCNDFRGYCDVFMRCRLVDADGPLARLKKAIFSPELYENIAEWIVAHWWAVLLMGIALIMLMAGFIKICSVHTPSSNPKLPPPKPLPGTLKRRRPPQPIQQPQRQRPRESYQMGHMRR

[3] = system: CCL2-induced migration of peripheral blood mononuclear cells (PBMC); experiment: PBMC migration assay; type: cell-based
Method: as §1

[4] = system: shedding of CXCL16 in A549 cells; experiment: CXCL16 shedding inhibition (ELISA); type: cell-based, human; conditions: TNF/IFN stimulation 24 h
Method: (§2) A549 cells were seeded in 12-well plates and grown to confluency in DMEM supplemented with 10% FBS and 1% P/S. Subsequently, cells were starved serum-free for 4 h, incubated for 1 h with GI 254023X or CID 3117694 (concentrations as indicated) or DMSO (vehicle, 0.1%) and afterwards stimulated with 10 ng/mL TNF and 10 ng/mL IFN for 24 h or left untreated in the presence of inhibitors or DMSO. Supernatants (500 µL) were harvested and centrifuged for 10 min at 16100 g and 4 °C. […] of CXCL16 were measured using the DuoSet human CXCL16 Elisa Kit (R&D systems, Wiesbaden, Germany). Samples were stored at −80 °C and diluted 2-fold after careful thawing. The standard ranged from 0 to 25,000 pg/mL with a detection limit of 391 pg/mL. For detection of soluble syndecan-4, conditioned media (200 µL) were 2-fold diluted in blotting buffer (0.15 M NaCl buffered to pH 4.5 with 50 mM sodium acetate, and with 0.1% Triton X-100), and applied to cationic polyvinylidene difluoride-based membranes (Hybond-N, Amersham Biosciences, Freiburg, Germany) under vacuum in a dot blot apparatus (Amersham Biosciences). The membranes were blocked for 1 h with PBS-T supplemented with 1% bovine serum albumin and 3% milk powder. Human syndecan-4 was detected by incubating membranes overnight at 4 °C with mouse anti-syndecan-4 mAb (0.6 µg/mL) followed by incubation with POD-coupled goat anti-mouse Ab (27 ng/mL in PBS, Jackson Immunoresearch). Chemiluminescence was recorded and quantified using the luminescent image analyzer LAS3000 substrate after addition of ECL advanced substrate (Amersham Biosciences).

ADAM17 [5] = molecular target: T2, ADAM17 (Homo sapiens, UniProt P78536); conditions: cited from earlier work
T2 construct: purchased R&D Systems 930-ADB
T2 sequence (P78536 215-824): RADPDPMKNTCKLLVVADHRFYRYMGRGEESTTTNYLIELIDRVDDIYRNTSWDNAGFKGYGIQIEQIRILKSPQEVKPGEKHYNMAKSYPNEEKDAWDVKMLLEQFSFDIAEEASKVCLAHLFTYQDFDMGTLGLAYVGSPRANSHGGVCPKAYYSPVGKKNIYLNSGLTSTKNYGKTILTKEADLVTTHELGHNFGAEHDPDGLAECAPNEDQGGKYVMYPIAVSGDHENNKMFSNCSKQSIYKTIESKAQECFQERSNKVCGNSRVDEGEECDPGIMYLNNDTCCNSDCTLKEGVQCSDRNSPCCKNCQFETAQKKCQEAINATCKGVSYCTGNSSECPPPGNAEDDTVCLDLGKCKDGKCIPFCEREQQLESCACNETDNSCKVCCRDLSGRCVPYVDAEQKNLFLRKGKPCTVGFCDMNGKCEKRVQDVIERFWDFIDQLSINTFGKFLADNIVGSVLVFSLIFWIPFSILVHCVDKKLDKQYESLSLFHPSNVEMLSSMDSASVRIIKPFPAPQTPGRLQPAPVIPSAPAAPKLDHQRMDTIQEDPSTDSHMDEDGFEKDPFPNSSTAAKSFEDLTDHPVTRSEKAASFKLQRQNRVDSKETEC

[6] = system: syndecan-4 shedding in A549 cells; experiment: Syndecan-4 shedding inhibition (dot blot); type: cell-based, human; conditions: TNF/IFN 24 h
Method: as §2, with “For detection of soluble syndecan-4, conditioned media (200 µL) were 2-fold diluted in blotting buffer (0.15 M NaCl buffered to pH 4.5 with 50 mM sodium acetate, and with 0.1% Triton X-100), and applied to cationic polyvinylidene difluoride-based membranes (Hybond-N, Amersham Biosciences, Freiburg, Germany) under vacuum in a dot blot apparatus (Amersham Biosciences). The membranes were blocked for 1 h with PBS-T supplemented with 1% bovine serum albumin and 3% milk powder.” left out

ADAM10 [7] = molecular target: T1, ADAM10; experiment: ADAM10 glycosylated substrate uHTS/HTS assay; type: biochemical
Method: To enable uHTS both ADAM10 and ADAM17 glycosylated substrate[13] (Fig. 1A) assays were miniaturized to 1536 well plate format. The workflow of the assays in 384 well plate format was recaptured in 1536 well plate format and assay volume was scaled down to 5 µL.
Both assays followed the same general protocol. […] Reactions were incubated at RT for 2 h, after which the fluorescence was measured using Perkin Elmer Viewlux multimode microplate imager (λexcitation = 360 nm, λemission = 460 nm). Final concentration of test compounds in assays was 7.0 µM.
(§3) The miniaturized 1536-well plate format ADAM10 and ADAM17 assays were used to screen a collection of ≈370,000 compounds (MLSMR library, provided by the NIH) on the automated Kalypsys/GNF platform at the Scripps Research Institute Molecular Screening Center (SRIMSC, Jupiter, FL. More details at http://hts.florida.scripps.edu/). […] Both uHTS campaigns were run separately but in a similar manner. Briefly, the first step was the primary screen of all MLSMR’s test compounds as singlicate against the ADAM10 or ADAM17 target at a final concentration of 7.0 μM. Next, compounds selected as primary hits were cherry-picked and retested in triplicate against the primary screen target and its anti-target (ADAM17 for the ADAM10 screening effort, and vice-versa) at the same final concentration of 7.0 μM. […] All data generated during this effort were uploaded to the SRIMSC’s institutional screening database (Assay Explorer, Symyx). Sample to background (S/B) ratios, as well as Z and Z′ values were calculated on a per-plate basis as described before. Curve fitting and resulting IC50 determinations were performed as previously reported.

ADAM17 [8] = molecular target: T2, ADAM17; experiment: ADAM17 glycosylated substrate uHTS/HTS assay; type: biochemical; conditions: for IC50: original uHTS dose response, 10-point 1:3 dilutions starting at 70 µM
Method: Both assays followed the same general protocol. […] After 30 min incubation at RT, the reactions were started by addition of 2.5 µL of 2x solutions of glycosylated substrate (20 µM). Reactions were incubated at RT for 2 h, after which the fluorescence was measured using Perkin Elmer Viewlux multimode microplate imager (λexcitation = 360 nm, λemission = 460 nm). Final concentration of test compounds in assays was 7.0 µM.
as §3

ADAM10 [9] = molecular target: T1, ADAM10; experiment: Dual inhibition studies of ADAM10 with AHA and CID 3117694; type: biochemical
Method: 5 µL of 4X ADAM10 solution ([…]) were added to solid bottom black 384 low volume plates (Nunc, cat# 264705). […] 5 µL of 4X CID 3117694 were added to the wells containing AHA such that the final assay concentrations of CID 3117694 were 0.275, 0.55, 1.1, 2.2, and 4.4 µM. Enzyme-inhibitor mixtures were incubated for 1 h at RT after which 5 µL of 4X glycosylated substrate was added to all wells. Reactions were incubated at RT for 2 h, after which the fluorescence was measured using the Synergy H4 multimode microplate reader (λexcitation = 360 nm, λemission = 460 nm). IC50 values were calculated by fitting normalized data to sigmoidal log vs. response equation utilizing non-linear regression analysis from GraphPad Prizm 6.
Multi-drug combination dose-effect analysis using Compusyn software (ComboSyn, Inc. 599 Mill Run, Paramus, NJ, 07653, USA) was utilized to determine whether inhibitor combinations produced synergy, antagonism, or no effect as compared to a single inhibitor. Combination Index values were obtained using Combination Index (CI) Equation of Chou-Talalay[56] in Compusyn software (ComboSyn, Inc. 599 Mill Run, Paramus, NJ, 07653, USA) and a normalized isobologram was constructed: (D)1/(Dx)1+(D)2/(Dx)2=CI
In the denominators, (Dx)1 is the doses of Drug1 alone that inhibits x% while (Dx)2 is the dose of Drug2 alone that inhibits x%. […] Effect was determined according to the Table 1 (from ref. [57]).

ADAM10 [10] = molecular target: T1, ADAM10; experiment: ADAM10 non-glycosylated substrate assay; type: biochemical; conditions: ADAM10
Excerpt: Additionally, we synthesized a non-glycosylated version, E(Edans)-[…]-K(Dabcyl), to be used as a control in the follow-up studies.

[11] = original uHTS dose response, 10-point 1:3 dilutions starting at 70 µM

## CNC(=O)[C@@H](NC(=O)[C@H](CCCc1ccccc1)[C@H](C)N(O)C=O)C(C)(C)C [GI 254023X, reference compound]
[1]
  inhibition of neutrophil migration: completely inhibited migration
ADAM10 [2]
  IC50: 0.0053 µM
[3]
  inhibition of PBMC migration: completely inhibited migration
[4]
  inhibition of cytokine-inducible shedding of CXCL16: inhibited shedding
ADAM17 [5]
  IC50: 0.541 µM
[6]
  inhibition of syndecan-4 shedding: inhibited shedding

## O=C1NC(=O)C(Cc2ccc(Cl)cc2)(c2ccccc2)N1 (stereo not shown) [CID 236330]
ADAM10 [7]; [11]
  IC50: 32 µM
ADAM17 [8]
  IC50: 3.2 µM

## CCOc1ccc(NC(=O)CC2SC(=O)N(c3ccccc3)C2=O)cc1 (stereo not shown) [CID 3153587]
ADAM10 [7]; [11]
  IC50: > 70 µM
ADAM17 [8]
  IC50: 7.8 µM

## O=C(O)CCC(=O)c1c[nH]c2ccccc12 [CID 730037]
ADAM10 [7]; [11]
  IC50: > 70 µM
ADAM17 [8]; reordered powder, 10-point 1:3 dilutions starting at 100 µM
  activity against ADAM17 of reordered powder versus original testing: significantly lower activity

## CC(=O)NO [AHA, acetohydroxamic acid]
ADAM10 [9]; AHA alone, read-out: AHA IC50, ADAM10-mediated hydrolysis of glycosylated substrate
  IC50: 1000 ± 50 µM
ADAM10 [9]; in the presence of 1.1 µM CID 31176944
  improvement in potency versus AHA alone: 10 fold
ADAM10 [9]; in the presence of 4.4 µM CID 31176944
  improvement in potency versus AHA alone: 100 fold

## O=C(NO)[C@H]1C[C@H](OC(=O)N2CCCC2)CC[C@@H]1C(=O)N1CCC(c2ccccc2)CC1 [INCB8765]
ADAM10 [2]
  IC50: 0.097 µM
ADAM17 [5]
  IC50: 2.04 µM

## CNC(=O)[C@@H](NC(=O)[C@H](CC(C)C)[C@H](O)C(=O)NO)C(C)(C)C [marimastat, reference compound]
ADAM10 [10]
  potency for hydrolysis of glycosylated versus non-glycosylated substrate: same potency
ADAM10 [7]; 384 well plate format
  IC50: 0.033 µM
ADAM10 [7]; 1536 well plate format
  IC50: 0.02 µM

B1: ADAM10 prodomain: Biozyme Inc.; competitive inhibitor of ADAM10 (protein)
chain: NPLNKYIRHYEGLSYNVDSLHQKHQRAKRAVSHEDQFLLLDFHAHGRQFNLRMKRDTSLFSDEFKVETSNKVLDYDTSHIYTGHIYGEEGSFSHGSVIDGRFEGFIKTRGGTFYIEPAERYIKDRILPFHSVIYHEDDINYPHKYGPQGGCADHSVFERMRKYQMTGVEEGARAHPEKHAASSGPELLRKK
modifications: tag omitted
ADAM10 [2]
  IC50: 0.048 µM
ADAM17 [5]
  IC50: > 10 µM
